Results reported in US4382090A, “N-Thiazolylmethylthioalkyl-N'alkylamidines and related compounds” (Eli Lilly and Company, priority 1981, dated 1983).

Legend:
[1] = tested on: H2 -receptor; settings: cited from earlier work
[2] = tested on: H2 -receptor; settings: cited from earlier work; remark: listed apart in the source
[3] = Preliminary tests of duration of action
[4] = biological target: T1, H2 -receptors (Rattus norvegicus, UniProt P25102); test: H2-receptor blocking activity, isolated rat uterine horn (histamine relaxation of KCl-contracted uterus); settings: for Kb: rat uterus, Schild plot, read-out: KB (dissociation constant of the antagonist)
T1 construct: from tissue; host or cells: uterine horn of estrone-treated female albino rats
T1 sequence (P25102 whole entry): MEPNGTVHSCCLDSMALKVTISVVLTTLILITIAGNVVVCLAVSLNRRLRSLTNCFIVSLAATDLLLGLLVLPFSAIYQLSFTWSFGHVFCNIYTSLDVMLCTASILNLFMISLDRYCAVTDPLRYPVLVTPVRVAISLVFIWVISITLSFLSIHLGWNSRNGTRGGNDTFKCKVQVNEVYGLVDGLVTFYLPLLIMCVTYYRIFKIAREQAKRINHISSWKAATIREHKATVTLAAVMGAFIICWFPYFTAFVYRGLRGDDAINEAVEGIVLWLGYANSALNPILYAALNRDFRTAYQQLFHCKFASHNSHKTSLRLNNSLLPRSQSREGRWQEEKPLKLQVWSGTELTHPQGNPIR
Method: The following assay for H2 -receptor blocking activity was employed. Female albino rats were treated with estrone 24 hours prior to the initiation of the experiment. The rats were sacrificed and the uterine horns removed therefrom and suspended at ambient temperatures in isolated organ baths containing De Jalon's solution. After equilibration, the uterine strips are exposed to 50 millimole aqueous potassium chloride, which produces a sustained contraction. When the uterus is so contracted, histamine produces a dose-dependent H2 -receptor-mediated relaxation. A control dose-response curve to histamine is constructed on each tissue. Following thorough washout of the histamine after obtaining the control dose-response curve, each antagonist (the compounds of this invention) is added for 30 minutes at a concentration of 10^-5 molar. The uterine strips are then contracted with aqueous potassium chloride in the presence of the antagonist and a second dose-response curve to histamine obtained. In the presence of a competitive antagonist, the dose-response curve to histamine is shifted in parallel to the right with no depression of the maximum relative to the control curve. The dose ratio (DR) is calculated for each concentration of antagonist by dividing the ED50 of histamine in the presence of the competitive antagonist by the control ED50 for histamine. The dissociation constant (KB) of the antagonist is calculated from the dose-ratios by the following equation: […]

[5] = cited from earlier work
[6] = cited from earlier work; remark: listed apart in the source

## C#CCNC(=C[N+](=O)[O-])NCCSCc1ccc(CN(C)C)o1 [1-nitro-2-(2-propynylamino)-2-(2-[(5-dimethylaminomethyl-2-furyl)methylthio]ethylamino)ethylene]
[1]
  activity relative to cimetidine in a standard H2 -receptor assay: 7.45 times

## CNC(=NC#N)NCCSCc1csc(NC(=N)N)n1 [2-guanidino-4-[2-(2-cyano-3-methylguanidino)ethylthiomethyl]thiazole]
[2]
  activity compared with cimetidine: greatly increased activity over cimetidine

## CNC(=C[N+](=O)[O-])NCCSCc1csc(CN(C)C)n1 [N-methyl-N'-2-(2-dimethylaminomethyl-4-thiazolylmethylthio)ethyl 2-nitro-1,1-ethenediamine]
[3]
  duration of action compared with cimetidine: longer duration of action
[4]
  Kb: 87 nM

## CNC(=NC#N)NCCSCc1csc(CN(C)C)n1 [N-methyl-N'-2-(2-dimethylaminomethyl-4-thiazolylmethylthio)ethyl-N"-cyanoguanidine]
[4]; rat uterine strips, antagonist 10^-5 molar for 30 minutes
  affinity for the H2 -receptors relative to cimetidine: about 1.5 times

## CN/C(=N/CCSCc1nc[nH]c1C)NC#N [cimetidine, N-cyano-N'-methyl-N"-[2-([(5-methyl-1H-imidazol-4-yl)methyl]thio)ethyl]guanidine]
[5]; iv
  Literature LD50 rat iv: 106 mg/kg
[5]; oral
  Literature LD50 rat oral: 5000 mg/kg
[6]
  Literature LD50 mouse iv: 150 mg/kg
[4]
  Kb: 871 nM
